{
  "source": "patent US10278958B2",
  "about": "“IPA as a protective agent” (IXCELA, INC., priority 2012, dated 2019)",
  "key": {"[1]": {"tested_on": "protein aggregation", "settings": "in vitro; cited from earlier work"}, "[2]": {"tested_on": "E. coli", "settings": "culture studies; cited from earlier work"}, "[3]": {"experiment": "Fenton reaction: disappearance of I3PA", "format": "physicochemical", "settings": "100 μM H2O2, 10 μM iron sulfate, 100 μM I3PA, 4° C. in the dark, 2 h", "procedure": "The reaction mixture was kept at 4° C. in the dark. Every 30 min, a small aliquot of the reaction mixture was diluted 1:10 and injected onto the offline LC-EC array system."}, "[4]": {"tested_on": "Alzheimer β-amyloid protein", "settings": "two examples of oxidative stress; cited from earlier work"}, "[5]": {"experiment": "Distribution of gut-produced IPA to plasma, brain and CSF", "format": "in vivo, HD mouse models and human", "settings": "for crossing of the blood-brain-barrier: gut-produced IPA, brain and CSF", "excerpt": "(§1) IPA is an indole produced in organisms such as c. Sporogenes that have the enzyme to remove the OH from the 2 position on the propionic acid side chain of indole lactic acid an end product of tryptophan metabolism in mammalian species. It is one of several gut metabolites that affect the plasma metabolome. Other organisms such as brewers yeast also show the ability to produce IPA (Sec below a means of producing purified IPA preparations using brewers yeast or similar organisms). […] We have shown that on free radical attack the intermediate positive ion free radical binds to protein as a kynuric acid moiety. […] We also have identified two metabolites of IPA that allow monitoring of levels in excretion samples such as urine which correlate with plasma and brain levels."}, "[6]": {"experiment": "Stability of IPA in plasma at room temperature", "format": "in vitro ADME", "settings": "after 7 days at room temperature", "excerpt": "FIG. 26 illustrates the first criterion for selecting compounds for targeted methods is that is a progressive biomarkers—as shown by the trend from C to PMHD to HD in the left hand panel for IPA. A practical criterion is stability. […] Method development then involves integrating simplest preparative and instrument protocols for speed and minimum sample size and interferences. A preparative protocol using a simple 3:1 addition of methanol to plasma centrifuging and injecting supernate was matched to a mobile phase, column and detector settings allowing sensitivity to 2 ng/ml, linearity across the range and analysis with no currently determined interferences. […] The third panel illustrates the application of the method to mouse urine in a dose loading study of IPAM showing two metabolites in dosed animals (green) and the same two metabolites in un dosed mice (blue) and in human urine (red)."}, "[7]": {"biological_target": "BSA (Bos taurus, UniProt P02769)", "sequence (P02769 25-607)": "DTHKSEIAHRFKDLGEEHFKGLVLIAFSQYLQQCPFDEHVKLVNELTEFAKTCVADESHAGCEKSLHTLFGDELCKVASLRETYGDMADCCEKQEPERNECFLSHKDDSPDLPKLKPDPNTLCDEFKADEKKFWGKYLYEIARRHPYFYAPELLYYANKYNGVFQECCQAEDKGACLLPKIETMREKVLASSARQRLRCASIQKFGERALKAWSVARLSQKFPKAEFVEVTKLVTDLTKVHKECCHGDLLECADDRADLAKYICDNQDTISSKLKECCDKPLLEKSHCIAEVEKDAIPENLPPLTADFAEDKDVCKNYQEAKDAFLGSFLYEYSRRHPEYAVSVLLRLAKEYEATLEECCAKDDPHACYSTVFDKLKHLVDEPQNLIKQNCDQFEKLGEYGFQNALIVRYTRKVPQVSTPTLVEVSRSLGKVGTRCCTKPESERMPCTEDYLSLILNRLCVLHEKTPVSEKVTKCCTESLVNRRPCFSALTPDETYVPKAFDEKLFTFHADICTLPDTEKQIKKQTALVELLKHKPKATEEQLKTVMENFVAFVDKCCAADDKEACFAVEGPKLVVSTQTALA", "format": "binding", "excerpt": "(§2) In ancillary studies we measured the parent binding constants for I3PA with whole human plasma, HSA, BSA and ubiquitin using serial additions of I3PA to determine the number of molar equivalents of binding sites and mole equivalents of free I3PA. The binding constants (pk) for whole human plasma, HSA and BSA are one the order of 10^3 or greater than for ubiquitin alone. […] Thus, efforts to increase the yield of covalently bound kynuric acid were prevented by over generation of non-covalently bound material. We then decided to attempt this Fenton reaction with I3PA using angiotensin I as the peptide target."}, "[8]": {"tested_on": "plasma proteins both albumin and imunoglobulins", "format": "in vitro ADME", "excerpt": "as §1"}, "[9]": {"tested_on": "ischemia-induced neuronal damage", "settings": "mice and hamsters; by reducing DNA damage and lipid peroxidation; cited from earlier work"}, "[10]": {"tested_on": "brewers yeast protein", "experiment": "Binding of IPA to brewers yeast protein (10K MW filter) and release in HCl", "format": "physicochemical", "settings": "supernate through a 10K MW filter", "excerpt": "In yet another aspect of the disclosure we provide a method for preparation of purified indole therapies. Indoles as a class are subject to degradation and contamination such as the problem encountered with preparations of tryptophan that were related to development basal eosinophilia. Nominally pure commercial sources of indoles when evaluated using ultra-sensitive LCECA techniques show traces of other compounds from the […] to (pg/mg) levels (part per billion to sub part per trillion). These are potentially harmful. Pharmaceutical grade and supplemental tryptophan has now been brought to levels high purity that can be verified by LCECA. To take advantage of this we have developed a protocol for creating high concentrations of IPA using brewers yeast which also produces IPA with relatively good efficiency operating on a substrate of glucose and tryptophan. Brewers yeast as such is a common supplement and present as an extract in typical research mouse feed. Production of IPA in this matrix provides a highly purified IPA in a verifiably and long accepted matrix. As an example a preparation of 1 g of brewers yeast, 500 mg of glucose and 50 mg of tryptophan allowed to incubate to completion at room temperature (90-120 min) in 35 ml of distilled water yields ca. 3 mg of IPA. […]"}, "[11]": {"tested_on": "whole human plasma", "experiment": "Binding constants for I3PA by serial additions, whole human plasma", "settings": "whole human plasma vs ubiquitin", "excerpt": "as §2"}, "[12]": {"experiment": "Loading study of IPAM in R6/2 HD mice", "format": "in vivo, mouse", "procedure": "A cohort of R6/2 HD mice were dosed daily for 3 weeks intra peritoneal with 200 ug of the IPA derivative amide indole propionamide (IPAM) and compared with undosed R6/2 and their wild type littermates. Feces and urine were collected at the time of sacrifice and blood and brain after sacrifice. The data indicates: • 1. That the brain and plasma levels correlate with urinary levels and thus animals can be tracked in a drug trial without sacrifice. • 2. […] The R6/2 levels of IPA in brain and plasma are lower than in wild type mice. In this study although feces levels were lower the decrease was not significant."}, "[13]": {"biological_target": "T1, angiotensin I (Homo sapiens, UniProt P01019)", "T1 construct": "attempt this Fenton reaction with I3PA using angiotensin I as the peptide target; purchased The American Peptide Co", "experiment": "Fenton reaction of I3PA with angiotensin I, MS/MS", "procedure": "Angiotensin I was obtained from The American Peptide Co in Sunnyvale, Calif., USA. Six tubes were prepared with the following Fenton reaction mixtures: Tubes 1 and 4 contained 100 μM H2O2, 10 μM iron sulfate and 100 μM I3PA; Tubes 2 and 5 contained 100 μM H2O2, 100 μM iron sulfate and 100 μM I3PA. Tubes 3 and 6 contained 100 μM H2O2, 200 μM iron sulfate and 100 μM I3PA. Tubes 4, 5, and 6 also contained 1 μl of angiotensin I prepared to a concentration of 10 mg/ml. A separate tube containing only the Fenton reaction without angiotensin I was prepared and labeled as the negative control. The tubes containing the reaction mixtures were covered with aluminum wrap so that none of the reagents would deteriorate in the ambient light. All reaction mixtures were kept on ice. The tubes were left to react for 30 h.\nHigh resolution MS analysis of the reaction mixtures was performed using a 12-T Qh/FT-ICR hybrid mass spectrometer (SolariX, Bruker Daltonics) that was equipped with a nanospray source operated in the positive mode. Samples were diluted 1:2 in 50/50 methanol/water, 0.5% formic acid (for positive-ion mode) or 50/50 methanol/water, 0.05% triethylamine (TEA) (VWR Scientific, PA, USA) (for negative-ion mode) and were analyzed on the SolariX in positive and negative modes. Detection of ions in the SolariX was obtained at a resolution of approximately 110,000. […]"}, "[14]": {"biological_target": "T2, ubiquitin (Homo sapiens, UniProt P0CG47)", "T2 construct": "A calculation of a theoretical value for ubiquitin ([M+H]^+ m/z 8560.6287)", "experiment": "Fenton reaction of I3PA with ubiquitin, high resolution MS", "procedure": "A Fenton reaction was performed using the same concentrations of hydrogen peroxide, iron sulfate and I3PA as discussed above. One microliter of a solution of ubiquitin prepared to a concentration of 10 mg/mi was added to the mixture. In addition, a separate tube containing only the Fenton reaction without ubiquitin was prepared and labeled as the negative control. The reaction was kept in the dark at 4° C. for 16 h.\nHigh resolution MS analysis of the reaction mixtures was performed using a 12-T Qh/FT-ICR hybrid mass spectrometer (SolariX, Bruker Daltonics) that was equipped with a nanospray source operated in the positive mode. Samples were diluted 1:10 in 50/50 methanol/water, 0.5% formic acid and analyzed on the SolariX. Detection of ions in the SolariX was obtained at a resolution of approximately 110,000."}},
  "note": "“Also recorded” adds a separate entry of the source.",
  "data": [
    {"compound": "O=C(O)CCc1c[nH]c2ccccc12", "note": "[IPA, indole-3-propionic acid]", "values": [
      {"measurement": "effect on protein aggregation", "setting": "[1]", "result": "suppress protein aggregation"},
      {"measurement": "effect on other microbial species", "setting": "[2]", "result": "suppress other microbial species such as E. coli"},
      {"measurement": "oxidative stability in Fenton reaction", "setting": "[3]", "result": "disappearance of I3PA"},
      {"measurement": "neuroprotection", "setting": "[4]", "result": "strong levels of neuroprotection"},
      {"measurement": "absorption", "setting": "[5]; animal model and human studies", "result": "best adsorbed through the gut"},
      {"measurement": "crossing of the blood-brain-barrier", "setting": "[5]", "result": "crosses the BBB and is found in brain and CSF"},
      {"measurement": "crossing of the blood-brain-barrier", "setting": "[5]; listed as I3PA", "result": "did cross the blood-brain-barrier; also recorded: crosses the blood-brain-barrier"},
      {"measurement": "transfer from gut to plasma", "setting": "[5]; residual fecal levels vs plasma levels", "result": "majority of IPA produced is transferred to plasma"},
      {"measurement": "degradation in plasma", "setting": "[6]", "result": 5, "unit": "%"},
      {"measurement": "binding constants (pk) relative to ubiquitin alone", "setting": "[7]", "result": "~10^3"},
      {"measurement": "binding to plasma proteins", "setting": "[8]", "result": "strongly bound to plasma proteins"},
      {"measurement": "free levels", "setting": "[8]", "result": "ca. 0.1 ng/ml"},
      {"measurement": "loading capacity of plasma for IPA", "setting": "[8]", "result": "approximately 10 ug/ml"},
      {"measurement": "normal plasma levels", "setting": "[8]", "result": "ca. 200 ug/ml"},
      {"measurement": "protection of neurons", "setting": "[9]", "result": "protects neurons from ischemia-induced neuronal damage"},
      {"measurement": "IPA coordinately bound to brewers yeast protein", "setting": "[10]", "result": "75-80%"},
      {"measurement": "binding constants (pk) relative to ubiquitin alone", "setting": "[11]", "result": "~10^3"}
    ]},
    {"compound": "indole propionamide [IPAM]", "values": [
      {"measurement": "conversion of IPAM to IPA", "setting": "[12]; intra peritoneal 200 ug daily for 3 weeks, R6/2 mice, blood/plasma vs gut", "result": "converted rapidly in the blood to IPA but less rapidly in the gut; also recorded: rapidly converted to IPA in the plasma; also recorded: converted rapidly to I3PA in plasma and less rapidly in the gut"},
      {"measurement": "urinary metabolites", "setting": "[12]; mouse urine of dosed animals", "result": "probable glucuronide type Phase II metabolite compounds"}
    ]},
    {"compound": "kynuric acid", "values": [
      {"measurement": "covalent binding site on angiotensin I", "setting": "[13]", "result": "Tyr4"},
      {"measurement": "binding of I3PA oxidation product to ubiquitin", "setting": "[14]", "result": "bound both covalently and co-coordinately"}
    ]}
  ]
}
